Reference: US9604961B2, “Histone demethylase inhibitors” (Celgene Quanticel Research, Inc., priority 2012, dated 2017)

Key:
Format in all cases: biochemical
[1] = molecular target: FBXL10 (Homo sapiens (Human), UniProt Q8NHM5); experiment: FBXL10 in vitro enzyme inhibition assay (AlphaScreen)
Procedure: Reaction product was determined quantitatively by AlphaScreen detection after the addition of detection reagents anti-H3K36me1 antibody, AlphaScreen® Streptavidin-coated Donor beads, and AlphaScreen® Protein A Acceptor beads in 50 mM HEPES, pH7.3, 10 mM NaCl, 0.005% Brij35, 5 mM EDTA, 2 mg/ml BSA to final 10 μg/ml beads.
Plates were incubated at room temperature for 40 minutes, followed by addition of 3 μl of 50 μg/ml AlphaScreen® Streptavidin-coated Donor beads and AlphaScreen® Protein A Acceptor beads in 50 mM HEPES, pH7.3, 10 mM NaCl, 0.005% Brij35, 5 mM EDTA, 2 mg/ml BSA. Plates were read by EnVisionMultilabel Reader in AlphaScreen mode after a minimum of 2 hour or up to overnight incubation at room temperature. The AlphaScreen signal for each well was used to determine inhibition constant (IC50).

[2] = molecular target: JMJD2C (Homo sapiens (Human), UniProt Q9H3R0); experiment: JMJD2C in vitro enzyme inhibition assay (TR-FRET)
Procedure: Baculovirus expressed JMJD2C (GenBank Accession #BC143571, AA 2-372) was purchased from BPS Bioscience (Cat#50105).
The ability of test compounds to inhibit the activity of JMJD2C was determined in 384-well plate format under the following reaction conditions: 0.3 nM JMJD2C, 300 nM H3K9me3-biotin labeled peptide (Anaspec cat #64360), 2 μM alpha-ketoglutaric acid in assay buffer of 50 mM HEPES, pH7.3, 0.005% Brij35, 0.5 mM TCEP, 0.2 mg/ml BSA, 50 μM sodium L-ascorbate, and 2 μM ammonium iron(II) sulfate. Reaction product was determined quantitatively by TR-FRET after the addition of detection reagent Phycolink Streptavidin-allophycocyanin (Prozyme) and Europium-anti-di-methylated histone H3 lysine 9 (H3K9me2) antibody (PerkinElmer) in the presence of 5 mM EDTA in LANCE detection buffer (PerkinElmer) at a final concentration of 50 nM and 1 nM, respectively.
The assay reaction was initiated by the following: 2 μl of the mixture of 900 nM H3K9me3-biotin labeled peptide and 6 μM alpha-ketoglutaric acid with 2 μl of 11-point serial diluted inhibitor in 3% DMSO were added to each well of the plate, followed by the addition of 2 μl of 0.9 nM JMJD2C to initiate the reaction. The reaction mixture was incubated at room temperature for 30 minutes, and terminated by the addition of 6 μl of 5 mM EDTA in LANCE detection buffer containing 100 nM Phycolink Streptavidin-allophycocyanin and 2 nM Europium-anti-H3K9me2 antibody. Plates were read by EnVisionMultilabel Reader in TR-FRET mode (excitation at 320 nm, emission at 615 nm and 665 nm) after 1 hour incubation at room temperature. A ratio was calculated (665/615) for each well and fitted to determine inhibition constant (IC50).

[3] = molecular target: Jarid1B (Homo sapiens (Human), UniProt Q9UGL1); experiment: Jarid1B in vitro enzyme inhibition assay (TR-FRET)
[4] = molecular target: Jarid1A (Homo sapiens (Human), UniProt P29375); experiment: Jarid1A in vitro enzyme inhibition assay (TR-FRET)
Description: The enzymatic assay of Jarid1A activity is based upon Time Resolved-Fluorescence Resonance Energy Transfer (TR-FRET) detection.

Sequence of FBXL10 (Q8NHM5 1-650): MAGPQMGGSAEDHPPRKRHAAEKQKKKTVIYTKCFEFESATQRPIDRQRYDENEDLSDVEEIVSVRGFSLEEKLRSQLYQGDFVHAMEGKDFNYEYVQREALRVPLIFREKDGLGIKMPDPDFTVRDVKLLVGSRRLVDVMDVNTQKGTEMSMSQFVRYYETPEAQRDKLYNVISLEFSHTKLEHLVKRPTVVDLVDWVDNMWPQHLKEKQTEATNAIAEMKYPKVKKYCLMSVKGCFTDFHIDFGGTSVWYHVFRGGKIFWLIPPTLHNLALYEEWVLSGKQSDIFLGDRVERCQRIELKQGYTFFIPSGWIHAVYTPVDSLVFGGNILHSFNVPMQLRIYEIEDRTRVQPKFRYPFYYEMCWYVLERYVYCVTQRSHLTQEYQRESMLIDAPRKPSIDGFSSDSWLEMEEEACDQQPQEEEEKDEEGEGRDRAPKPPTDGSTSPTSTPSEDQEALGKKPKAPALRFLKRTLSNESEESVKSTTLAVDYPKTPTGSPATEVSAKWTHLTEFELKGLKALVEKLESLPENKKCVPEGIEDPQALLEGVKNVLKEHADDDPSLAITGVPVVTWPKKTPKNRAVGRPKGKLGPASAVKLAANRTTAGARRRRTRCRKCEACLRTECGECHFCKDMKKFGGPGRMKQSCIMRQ
Sequence of JMJD2C (Q9H3R0 2-372): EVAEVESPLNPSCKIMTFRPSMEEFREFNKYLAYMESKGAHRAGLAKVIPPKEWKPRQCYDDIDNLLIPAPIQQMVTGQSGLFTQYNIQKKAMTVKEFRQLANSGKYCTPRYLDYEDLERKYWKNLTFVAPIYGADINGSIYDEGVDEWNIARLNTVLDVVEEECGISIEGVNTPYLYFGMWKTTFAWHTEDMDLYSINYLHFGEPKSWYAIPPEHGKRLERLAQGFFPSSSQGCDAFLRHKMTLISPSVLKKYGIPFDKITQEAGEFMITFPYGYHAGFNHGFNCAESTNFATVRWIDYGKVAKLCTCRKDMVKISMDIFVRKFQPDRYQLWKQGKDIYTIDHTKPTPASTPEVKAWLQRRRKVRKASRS
Sequence of Jarid1A (P29375 1-1090): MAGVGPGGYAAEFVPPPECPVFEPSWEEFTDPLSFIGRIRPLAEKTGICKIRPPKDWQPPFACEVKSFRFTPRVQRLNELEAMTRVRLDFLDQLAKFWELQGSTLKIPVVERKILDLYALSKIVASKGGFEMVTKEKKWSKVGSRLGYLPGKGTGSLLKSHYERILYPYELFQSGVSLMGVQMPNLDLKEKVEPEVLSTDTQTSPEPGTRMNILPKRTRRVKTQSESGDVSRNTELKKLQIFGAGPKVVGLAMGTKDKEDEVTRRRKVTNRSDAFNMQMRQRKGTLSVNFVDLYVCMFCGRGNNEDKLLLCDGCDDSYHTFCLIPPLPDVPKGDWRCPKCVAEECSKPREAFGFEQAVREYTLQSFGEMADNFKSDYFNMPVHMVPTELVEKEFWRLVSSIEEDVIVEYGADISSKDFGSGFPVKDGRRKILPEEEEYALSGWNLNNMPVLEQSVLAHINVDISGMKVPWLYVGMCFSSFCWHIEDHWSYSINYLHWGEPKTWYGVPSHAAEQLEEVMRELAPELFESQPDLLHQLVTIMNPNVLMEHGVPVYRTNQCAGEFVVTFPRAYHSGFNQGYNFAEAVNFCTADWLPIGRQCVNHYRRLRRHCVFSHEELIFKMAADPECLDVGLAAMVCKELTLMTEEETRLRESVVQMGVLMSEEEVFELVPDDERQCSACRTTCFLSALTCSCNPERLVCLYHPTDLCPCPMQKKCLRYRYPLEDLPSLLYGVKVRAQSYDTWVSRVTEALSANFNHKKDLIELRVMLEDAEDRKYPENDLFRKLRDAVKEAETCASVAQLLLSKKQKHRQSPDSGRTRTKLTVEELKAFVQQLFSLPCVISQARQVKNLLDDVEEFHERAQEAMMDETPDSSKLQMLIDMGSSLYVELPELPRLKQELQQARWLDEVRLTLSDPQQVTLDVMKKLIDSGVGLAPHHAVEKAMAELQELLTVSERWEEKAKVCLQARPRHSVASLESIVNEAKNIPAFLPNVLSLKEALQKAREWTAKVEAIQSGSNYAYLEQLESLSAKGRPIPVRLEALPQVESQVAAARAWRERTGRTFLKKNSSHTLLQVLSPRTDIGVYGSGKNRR
Sequence of Jarid1B (Q9UGL1 2-751): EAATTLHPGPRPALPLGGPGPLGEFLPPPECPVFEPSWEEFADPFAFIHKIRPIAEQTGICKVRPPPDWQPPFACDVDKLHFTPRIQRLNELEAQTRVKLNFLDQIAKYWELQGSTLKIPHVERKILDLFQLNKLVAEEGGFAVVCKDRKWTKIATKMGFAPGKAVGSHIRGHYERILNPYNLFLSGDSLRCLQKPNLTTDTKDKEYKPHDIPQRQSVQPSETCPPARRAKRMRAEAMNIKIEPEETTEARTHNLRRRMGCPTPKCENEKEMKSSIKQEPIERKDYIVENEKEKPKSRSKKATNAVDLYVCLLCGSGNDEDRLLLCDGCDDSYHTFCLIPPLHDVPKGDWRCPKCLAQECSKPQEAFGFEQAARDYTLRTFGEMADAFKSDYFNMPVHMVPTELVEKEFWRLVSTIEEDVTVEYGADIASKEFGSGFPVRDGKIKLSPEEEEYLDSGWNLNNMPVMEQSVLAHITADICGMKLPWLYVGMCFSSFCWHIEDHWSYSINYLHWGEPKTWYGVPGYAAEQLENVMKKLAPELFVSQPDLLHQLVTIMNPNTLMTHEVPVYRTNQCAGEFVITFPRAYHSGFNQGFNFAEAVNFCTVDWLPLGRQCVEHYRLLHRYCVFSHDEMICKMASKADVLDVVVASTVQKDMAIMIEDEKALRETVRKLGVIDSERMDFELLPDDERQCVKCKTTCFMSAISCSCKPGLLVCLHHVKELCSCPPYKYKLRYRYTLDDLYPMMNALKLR

Which results are given for `Cc1cc(F)ccc1Cc1cc(O)n(-c2cc(C(=O)O)ccn2)n1` [Example 173, 2-[3-[(4-fluoro-2-methylphenyl)methyl]-5-hydroxypyrazol-1-yl]pyridine-4-carboxylic acid]?
IC50 [1]: < 100 nM; IC50 [2]: 1000 to 10000 nM

`O=C(O)c1ccnc(-n2nc(Cc3c(F)cccc3F)cc2O)c1` [Example 161, 2-[3-[(2,6-difluorophenyl)methyl]-5-hydroxypyrazol-1-yl]pyridine-4-carboxylic acid] was tested. Which IC50 [1] did it give?
Its IC50 is under 100 nM.

And the IC50 [2]?
Its IC50 is 1000 to 10000 nM.

`Oc1cc(Cc2ccccc2Cl)nn1-c1cc(-c2nnn[nH]2)ccn1` [Example 167, 5-[(2-chlorophenyl)methyl]-2-[4-(1H-tetrazol-5-yl)pyridin-2-yl]pyrazol-3-ol] was tested. Which IC50 [1] did it give?
The IC50 was under 100 nM.

And the IC50 [2]?
The IC50 was 1000 to 10000 nM.

How did the IC50 [1] turn out when `Cc1ccc(Cc2cc(O)n(-c3cc(C(=O)O)ccn3)n2)c(F)c1` [Example 174, 2-[3-[(2-fluoro-4-methylphenyl)methyl]-5-hydroxypyrazol-1-yl]pyridine-4-carboxylic acid] was run?
Its IC50 is under 100 nM.

And the IC50 [2]?
The IC50 was 1000 to 10000 nM.

With `O=C(O)c1ccnc(-n2nc(Cc3cc(Cl)cc(Cl)c3)cc2O)c1` [Example 172, 2-[3-[(3,5-dichlorophenyl)methyl]-5-hydroxypyrazol-1-yl]pyridine-4-carboxylic acid] as the molecule, how does the IC50 [1] read?
The IC50 was 100 to 1000 nM.

What about the IC50 [2] of the same molecule?
The IC50 was 1000 to 10000 nM.

For `O=C(O)c1ccnc(-n2nccc2OCc2ccc(C3CC3)cc2F)c1` [Example 153, 2-[5-[(4-cyclopropyl-2-fluorophenyl)methoxy]pyrazol-1-yl]pyridine-4-carboxylic acid], which IC50 [2] is on record?
Its IC50 is 1000 to 10000 nM.

What about the IC50 [3] of the same molecule?
Its IC50 is 100 to 1000 nM.

And the IC50 [4]?
Its IC50 is 100 to 1000 nM.

How did the IC50 [2] turn out when `Cc1cc(F)ccc1COc1ccnn1-c1cc(C(=O)O)ccn1` [Example 128, 2-[5-[(4-fluoro-2-methylphenyl)methoxy]pyrazol-1-yl]pyridine-4-carboxylic acid] was run?
Its IC50 is 100 to 1000 nM.

And the IC50 [3]?
The IC50 was under 100 nM.

And the IC50 [4]?
Its IC50 is under 100 nM.

For `O=C(O)c1ccnc(-n2nccc2OC2CCCc3cc(Cl)ccc32)c1` (stereo not shown) [Example 149, 2-[5-[(6-chloro-1,2,3,4-tetrahydronaphthalen-1-yl)oxy]pyrazol-1-yl]pyridine-4-carboxylic acid], which IC50 [2] is on record?
The IC50 was 1000 to 10000 nM.

What about the IC50 [3] of the same molecule?
The IC50 was under 100 nM.

What about the IC50 [4] of the same molecule?
Its IC50 is 100 to 1000 nM.

How did the IC50 [2] turn out when `Cc1cnn(-c2cc(C(=O)O)ccn2)c1OCc1ccc(F)cc1` [Example 84, 2-[5-[(4-fluorophenyl)methoxy]-4-methylpyrazol-1-yl]pyridine-4-carboxylic acid] was run?
Its IC50 is 100 to 1000 nM.

And the IC50 [3]?
The IC50 was under 100 nM.

And the IC50 [4]?
Its IC50 is under 100 nM.

What does the source list for `Cc1cccc(-c2ccnn2-c2cc(C(=O)O)ccn2)c1` [Example 13, 2-(5-m-tolyl-1H-pyrazol-1-yl)isonicotinic acid]?
IC50 [2]: 100 to 1000 nM; IC50 [3]: 100 to 1000 nM; IC50 [4]: 100 to 1000 nM

`Cc1cc(OCc2ccccc2)n(-c2cc(C(=O)O)ccn2)n1` [Example 38, 2-(5-(benzyloxy)-3-methyl-1H-pyrazol-1-yl)isonicotinic acid] was tested. Which IC50 [2] did it give?
Its IC50 is 100 to 1000 nM.

And the IC50 [3]?
Its IC50 is under 100 nM.

And the IC50 [4]?
Its IC50 is 100 to 1000 nM.

Which results are given for `O=C(O)c1ccnc(-n2nccc2OCc2ccc(Cl)c(C(F)(F)F)c2)c1` [Example 91, 2-[5-[[4-chloro-3-(trifluoromethyl)phenyl]methoxy]pyrazol-1-yl]pyridine-4-carboxylic acid]?
IC50 [2]: 100 to 1000 nM; IC50 [3]: < 100 nM; IC50 [4]: < 100 nM

How did the IC50 [2] turn out when `O=C(O)c1ccnc(-n2nccc2OCc2ccc(F)c(F)c2)c1` [Example 52, 2-{5-[(3,4-difluorobenzyl)oxy]-1H-pyrazol-1-yl}pyridine-4-carboxylic acid] was run?
Its IC50 is 100 to 1000 nM.

And the IC50 [3]?
Its IC50 is under 100 nM.

And the IC50 [4]?
Its IC50 is under 100 nM.

Which results are given for `CCc1ccc(COc2ccnn2-c2cc(C(=O)O)ccn2)c(Cl)c1` [Example 150, 2-[5-[(2-chloro-4-ethylphenyl)methoxy]pyrazol-1-yl]pyridine-4-carboxylic acid]?
IC50 [2]: 1000 to 10000 nM; IC50 [3]: 100 to 1000 nM; IC50 [4]: 100 to 1000 nM

With `Cc1ccc(-c2cc(N)nn2-c2cc(C(=O)O)ccn2)cc1` [Example 48, 2-[3-amino-5-(4-methylphenyl)-1H-pyrazol-1-yl]pyridine-4-carboxylic acid] as the molecule, how does the IC50 [2] read?
The IC50 was 1000 to 10000 nM.

What about the IC50 [3] of the same molecule?
The IC50 was 100 to 1000 nM.

What about the IC50 [4] of the same molecule?
Its IC50 is under 100 nM.
